Reference: patent publication US20240092835A1, “NOVEL PEPTIDES CAPABLE OF ALTERING NK CELL ACTIVITY” (Massachusetts Institute of Technology, priority 2022, published 2024)

Experiments:
NKG2A+/NKG2C− NK cells = assay: NK cell activation markers in NKG2A+/NKG2C- NK cells incubated with peptide and K562 expressing HLA-E (inhibition); assay type: cell-based, human; settings: for percentage of CCL3+ NK cells / percentage of CD107a+ NK cells / percentage of IFNG+ NK cells / percentage of TNF+ NK cells: NKG2A+/NKG2C- NK cells, K562/HLA-E
Summary of the method: (§1)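 Read-out: % NK cells positive for surface activation markers; a rise indicates activation, a fall indicates inhibition. Targets were K562 cells expressing HLA-E, loaded with human- or HCMV-proteome-derived peptides.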

NKG2A−/NKG2C+ NK cells [1] = assay: NK cell activation markers in NKG2A-/NKG2C+ NK cells incubated with peptide and K562 expressing HLA-E (activation); assay type: cell-based, human; settings: for percentage of CCL3+ NK cells / percentage of CD107+ NK cells / percentage of IFNG+ NK cells / percentage of TNF+ NK cells: NKG2A-/NKG2C+ NK cells, K562/HLA-E
Summary of the method: as §1

NKG2A−/NKG2C− NK cells = assay: NK cell activation markers in control NKG2A-/NKG2C- NK cells incubated with peptide and K562 expressing HLA-E; assay type: cell-based, human
Summary of the method: as §1

NKG2A−/NKG2C+ NK cells [2] = assay: NKG2A-/NKG2C+ NK cell activation with peptide and RMA-S cells expressing HLA-E; assay type: cell-based; settings: RMA-S cells expressing HLA-E
Protocol: An antigen processing-defective lymphoma cell line (RMA-S), with a low-level expression of HLA-E, were incubated with the novel peptides to determine the inhibitory strength on NKG2A−/NKG2C+NK cells relative to positive control sequences with differential effects ([…] (SEQ ID NO: 19)/VMAPRTLFL (SEQ ID NO: 18)). The effects of the peptides on NK cell inhibition were determined by measuring four markers of NK cell activation (CD107a, IFNG, TNF, CCL3) in NKG2A−/NKG2C+NK cells (FIGS. 2A-2D). Activation was indicated by an increase in percent cells positive for cell surface markers.

HLA-E = biological target: T1, HLA-E (Homo sapiens, UniProt P13747); assay: HLA-E surface stabilization assay with RMA-S/HLA-E cells; assay type: cell-based; settings: 30 μM peptide, 16 hours; for HLA-E surface expression stability (GeoMFI): anti-HLA-E antibody
T1 construct: expressed in transfected cells; host or cells: RMA-S/HLA-E cells (antigen processing-defective lymphoma cell line)
T1 sequence (P13747 22-358): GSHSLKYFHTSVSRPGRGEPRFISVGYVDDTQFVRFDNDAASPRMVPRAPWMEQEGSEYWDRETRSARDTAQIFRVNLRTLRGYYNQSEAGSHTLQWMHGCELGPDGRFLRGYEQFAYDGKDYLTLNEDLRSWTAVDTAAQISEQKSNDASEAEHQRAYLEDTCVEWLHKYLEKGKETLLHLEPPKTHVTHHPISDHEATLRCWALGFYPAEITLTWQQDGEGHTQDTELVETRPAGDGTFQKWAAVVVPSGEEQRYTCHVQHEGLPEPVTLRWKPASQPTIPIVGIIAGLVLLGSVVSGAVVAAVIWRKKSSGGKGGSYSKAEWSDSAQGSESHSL
T1 sequence (P61769 21-119 partner): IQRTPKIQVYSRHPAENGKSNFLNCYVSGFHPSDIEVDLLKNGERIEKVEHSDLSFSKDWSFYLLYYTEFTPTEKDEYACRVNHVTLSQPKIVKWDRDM
Protocol: HLA-E surface expression was assessed by measuring geometric mean fluorescence intensity (GeoMFI) in RMA-S cells following immunofluorescence staining with an anti-HLA-E antibody (Table 14). Increased GeoMFI was indicative of increased HLA-E surface expression stability following novel peptide exposures (FIG. 3).

[3] = K562 expressing HLA-E, CD107a, IFNG, TNF, CCL3

Sequence: NMPARTVLF [human14, peptide MTREX 490-498 derived from the human proteome]
- effect on NKG2A+/NKG2C− NK cell inhibition (in words) (NKG2A+/NKG2C− NK cells; [3]): strong inhibitory
- percentage of CCL3+ NK cells (NKG2A+/NKG2C− NK cells; Trial 1): 3.55%
- percentage of CD107a+ NK cells (NKG2A+/NKG2C− NK cells; Trial 1): 1.54%
- percentage of IFNG+ NK cells (NKG2A+/NKG2C− NK cells; Trial 1): 0.3%
- percentage of TNF+ NK cells (NKG2A+/NKG2C− NK cells; Trial 1): 0.12%
- percentage of CCL3+ NK cells (NKG2A+/NKG2C− NK cells; Trial 2): 6.94%
- percentage of CD107a+ NK cells (NKG2A+/NKG2C− NK cells; Trial 2): 2.38%
- percentage of IFNG+ NK cells (NKG2A+/NKG2C− NK cells; Trial 2): 0.79%
- percentage of TNF+ NK cells (NKG2A+/NKG2C− NK cells; Trial 2): 0.31%
- percentage of CCL3+ NK cells (NKG2A+/NKG2C− NK cells; Trial 3): 6.08%
- percentage of CD107a+ NK cells (NKG2A+/NKG2C− NK cells; Trial 3): 3.66%
- percentage of IFNG+ NK cells (NKG2A+/NKG2C− NK cells; Trial 3): 2.62%
- percentage of TNF+ NK cells (NKG2A+/NKG2C− NK cells; Trial 3): 1.09%
- percentage of CCL3+ NK cells (NKG2A+/NKG2C− NK cells; Trial 4): 3.51%
- percentage of CD107a+ NK cells (NKG2A+/NKG2C− NK cells; Trial 4): 2.52%
- percentage of IFNG+ NK cells (NKG2A+/NKG2C− NK cells; Trial 4): 0.83%
- percentage of TNF+ NK cells (NKG2A+/NKG2C− NK cells; Trial 4): 0.55%
- percentage of CCL3+ NK cells (NKG2A+/NKG2C− NK cells; Trial 5): 17%
- percentage of CD107a+ NK cells (NKG2A+/NKG2C− NK cells; Trial 5): 4.05%
- percentage of IFNG+ NK cells (NKG2A+/NKG2C− NK cells; Trial 5): 2.12%
- percentage of TNF+ NK cells (NKG2A+/NKG2C− NK cells; Trial 5): 0.89%
- percentage of CCL3+ NK cells (NKG2A+/NKG2C− NK cells; Trial 6): 2.66%
- percentage of CD107a+ NK cells (NKG2A+/NKG2C− NK cells; Trial 6): 1.16%
- percentage of IFNG+ NK cells (NKG2A+/NKG2C− NK cells; Trial 6): 0.43%
- percentage of TNF+ NK cells (NKG2A+/NKG2C− NK cells; Trial 6): 0.14%
- effect on NKG2A−/NKG2C+ NK cell activation (in words) (NKG2A−/NKG2C+ NK cells [1]; [3]): strong inhibitory and activating effects
- percentage of CCL3+ NK cells (NKG2A−/NKG2C+ NK cells [1]; Trial 1): 70.6%
- percentage of CD107+ NK cells (NKG2A−/NKG2C+ NK cells [1]; Trial 1): 61.3%
- percentage of IFNG+ NK cells (NKG2A−/NKG2C+ NK cells [1]; Trial 1): 45.6%
- percentage of TNF+ NK cells (NKG2A−/NKG2C+ NK cells [1]; Trial 1): 31.9%
- percentage of CCL3+ NK cells (NKG2A−/NKG2C+ NK cells [1]; Trial 2): 87.5%
- percentage of CD107+ NK cells (NKG2A−/NKG2C+ NK cells [1]; Trial 2): 83.1%
- percentage of IFNG+ NK cells (NKG2A−/NKG2C+ NK cells [1]; Trial 2): 72.7%
- percentage of TNF+ NK cells (NKG2A−/NKG2C+ NK cells [1]; Trial 2): 65.1%
- percentage of CCL3+ NK cells (NKG2A−/NKG2C+ NK cells [1]; Trial 3): 82.5%
- percentage of CD107+ NK cells (NKG2A−/NKG2C+ NK cells [1]; Trial 3): 85%
- percentage of IFNG+ NK cells (NKG2A−/NKG2C+ NK cells [1]; Trial 3): 74.2%
- percentage of TNF+ NK cells (NKG2A−/NKG2C+ NK cells [1]; Trial 3): 65%
- percentage of CCL3+ NK cells (NKG2A−/NKG2C+ NK cells [1]; Trial 4): 61.1%
- percentage of CD107+ NK cells (NKG2A−/NKG2C+ NK cells [1]; Trial 4): 59.1%
- percentage of IFNG+ NK cells (NKG2A−/NKG2C+ NK cells [1]; Trial 4): 47.5%
- percentage of TNF+ NK cells (NKG2A−/NKG2C+ NK cells [1]; Trial 4): 40%
- percentage of CCL3+ NK cells (NKG2A−/NKG2C+ NK cells [1]; Trial 5): 71.8%
- percentage of CD107+ NK cells (NKG2A−/NKG2C+ NK cells [1]; Trial 5): 70.5%
- percentage of IFNG+ NK cells (NKG2A−/NKG2C+ NK cells [1]; Trial 5): 61.9%
- percentage of TNF+ NK cells (NKG2A−/NKG2C+ NK cells [1]; Trial 5): 57.9%
- percentage of CCL3+ NK cells (NKG2A−/NKG2C+ NK cells [1]; Trial 6): 52.1%
- percentage of CD107+ NK cells (NKG2A−/NKG2C+ NK cells [1]; Trial 6): 44.3%
- percentage of IFNG+ NK cells (NKG2A−/NKG2C+ NK cells [1]; Trial 6): 30.5%
- percentage of TNF+ NK cells (NKG2A−/NKG2C+ NK cells [1]; Trial 6): 21.8%
- percentage CCL3+ NK cells (NKG2A−/NKG2C− NK cells; Trial 1): 29.3%
- percentage CD107+ NK cells (NKG2A−/NKG2C− NK cells; Trial 1): 20.9%
- percentage TNF+ NK cells (NKG2A−/NKG2C− NK cells; Trial 1): 2.61%
- percentage of IFNG+ NK cells (NKG2A−/NKG2C− NK cells; Trial 1): 12.1%
- percentage CCL3+ NK cells (NKG2A−/NKG2C− NK cells; Trial 2): 54.7%
- percentage CD107+ NK cells (NKG2A−/NKG2C− NK cells; Trial 2): 31.4%
- percentage TNF+ NK cells (NKG2A−/NKG2C− NK cells; Trial 2): 9.25%
- percentage of IFNG+ NK cells (NKG2A−/NKG2C− NK cells; Trial 2): 27.7%
- percentage CCL3+ NK cells (NKG2A−/NKG2C− NK cells; Trial 3): 44%
- percentage CD107+ NK cells (NKG2A−/NKG2C− NK cells; Trial 3): 43.7%
- percentage TNF+ NK cells (NKG2A−/NKG2C− NK cells; Trial 3): 17.1%
- percentage of IFNG+ NK cells (NKG2A−/NKG2C− NK cells; Trial 3): 36.5%
- percentage CCL3+ NK cells (NKG2A−/NKG2C− NK cells; Trial 4): 29.2%
- percentage CD107+ NK cells (NKG2A−/NKG2C− NK cells; Trial 4): 25.6%
- percentage TNF+ NK cells (NKG2A−/NKG2C− NK cells; Trial 4): 8.96%
- percentage of IFNG+ NK cells (NKG2A−/NKG2C− NK cells; Trial 4): 17.5%
- percentage CCL3+ NK cells (NKG2A−/NKG2C− NK cells; Trial 5): 26.9%
- percentage CD107+ NK cells (NKG2A−/NKG2C− NK cells; Trial 5): 21.8%
- percentage TNF+ NK cells (NKG2A−/NKG2C− NK cells; Trial 5): 7.19%
- percentage of IFNG+ NK cells (NKG2A−/NKG2C− NK cells; Trial 5): 16.7%
- percentage CCL3+ NK cells (NKG2A−/NKG2C− NK cells; Trial 6): 20.9%
- percentage CD107+ NK cells (NKG2A−/NKG2C− NK cells; Trial 6): 16.7%
- percentage TNF+ NK cells (NKG2A−/NKG2C− NK cells; Trial 6): 2.97%
- percentage of IFNG+ NK cells (NKG2A−/NKG2C− NK cells; Trial 6): 7.36%
- NKG2A−/NKG2C+ NK cell activation relative to positive control peptides (in words) (NKG2A−/NKG2C+ NK cells [2]): decreased NK cell activation relative to the positive control peptides
- HLA-E surface expression stability (GeoMFI) (HLA-E; Trial 1): 1304 GeoMFI
- HLA-E surface expression stability (GeoMFI) (HLA-E; Trial 2): 1364 GeoMFI
- HLA-E surface expression stability (GeoMFI) (HLA-E; Trial 3): 1005 GeoMFI
- HLA-E surface expression stability (GeoMFI) (HLA-E; Trial 4): 1738 GeoMFI
- HLA-E surface expression stabilization strength, approximate GeoMFI (HLA-E; approximate value): approximately 1×10^3 GeoMFI
